This passage reports IC50 results from patent US20170260226A1, “3-NITROGEN OR SULPHUR SUBSTITUTED OESTRA-1,3,5(10),16-TETRAENE AKR1C3 INHIBITORS” (BAYER PHARMA AKTIENGESELLSCHAFT, priority 2014, published 2017).

For test [1], the target named is T1, AKR1C3 (Homo sapiens, UniProt P42330).
T1 sequence (P42330 1-323): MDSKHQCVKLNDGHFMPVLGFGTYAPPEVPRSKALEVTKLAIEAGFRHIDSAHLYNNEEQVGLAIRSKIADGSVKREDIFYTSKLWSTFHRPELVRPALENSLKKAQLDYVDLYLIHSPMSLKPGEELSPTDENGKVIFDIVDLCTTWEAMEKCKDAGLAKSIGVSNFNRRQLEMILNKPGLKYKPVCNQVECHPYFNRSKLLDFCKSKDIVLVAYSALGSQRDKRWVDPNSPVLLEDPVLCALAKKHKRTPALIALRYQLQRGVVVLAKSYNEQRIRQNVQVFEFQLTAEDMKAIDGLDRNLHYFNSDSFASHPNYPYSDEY
Briefly: AKR1C3 enzyme inhibition assay (coumberone to coumberol fluorescence). Type of test: biochemical. Also on record: GST (cleaved yes); made in house; host or cells: E. coli. To be noted: mean values; 10 μM NADPH, 0.3 μM coumberone, 3 h at room temperature. As to the method:
The AKR1C3-inhibitory action of the substances of this invention was measured in the AKR1C3 assay described in the paragraphs which follow.
Essentially, the enzyme activity is measured by quantifying the coumberol formed from coumberone (Halim, M., Yee, D., J., and Sames, D., J. A., M. (2008). Chem Soc 130, 14123-14128 and Yee, D., J., Balsanek, V., Bauman, D., R., Penning, T., M., and Sames, D. (2006). Proc Natl Acad Sci USA, 103, 13304-13309). In this assay, the increase in the highly fluorescent coumberol can be determined by NADPH (nicotinamide adenine dinucleotide phosphate)-dependent reduction of the nonfluorescent coumberone by AKR1C3.
The enzyme used was recombinant human AKR1C3 (aldo-keto reductase family 1 member C3) (GenBank Accession No. NM_003739). This was expressed as the GST (glutathione S-transferase) fusion protein in E. coli and purified by means of glutathione-Sepharose affinity chromatography. The GST was removed by thrombin digestion with subsequent size exclusion chromatography (Dufort, I., Rheault, P., Huang, X., F., Soucy, P., and Luu-The, V. (1999). Endocrinology,140, 568-574).
For the assay, 40-50 nl of a 100-fold concentrated solution of the test substance in DMSO were pipetted into a black low-volume 384-well microtitre plate (Greiner Bio-One, Frickenhausen, Germany), 2-2.5 μl of a solution of AKR1C3 in assay buffer [50 mM potassium phosphate buffer pH 7, 1 mM DTT, 0.0022% (w/v) Pluronic F-127, 0.01% BSA (w/v) and protease inhibitor cocktail (complete, EDTA-free Protease Inhibitor Cocktail from Roche)] were added and the mixture was incubated for 20 min, in order to enable preliminary binding of the substances to the enzyme prior to the enzyme reaction. Then the enzyme reaction was started by adding 2-2.5 μl of a solution of NADPH and coumberone in assay buffer (final assay concentration was 10 μM NADPH and 0.3 μM coumberone) and the resulting mixture was incubated at room temperature for 3 h. Typical concentrations were depending on the linear range of the enzyme reaction during the reaction time about 1 nM. The reaction was stopped by adding 2 μl of a stop solution consisting of the AKR1C3 inhibitor EM-1404 to a final concentration of 1 μM. Subsequently, the fluorescence of coumberol was measured at 520 nm (excitation at 380 nm) with a suitable measuring instrument (Pherastar, BMG). […] The data were normalized (enzyme+coumberon substrate in assay buffer=0% inhibition; coumberone substrate only in assay buffer=100% inhibition). Substances were usually tested at 11 different concentrations on the same microtiter plate in a range between 96.8 pM to 20 μM (20 μM, 5.9 μM, 1.7 μM, 0.5 μM, 0.15 μM, 44 nM, 12.9 nM, 3.8 nM, 1.1 nM, 0.3 nM and 96.8 pM). The dilutions were carried out on a 100 fold concentrated solution by serial dilution in duplicates. From the obtained data IC50 values were calculated by a 4-parameter fit.

Test [2] has as its target T1, AKR1C3. The test is described as follows: AKR1C3 inhibition in a cell-based system (HEK293 cells transfected with AKR1C3 expression plasmid, coumberon substrate). Set-up: expressed in transfected cells; host or cells: HEK293 cells (ATCC). To be noted: mean values; HEK293 cells transfected with AKR1C3, coumberon 6×10^−6M, 3 h; read-out: Cellular AKR1C3 inhibition IC50. The method, then: The inhibition of AKR1C3 by the substances described in this invention was measured in a cell-based assay using coumberon as the substrate for AKR1C3 (Halim, M., Yee, D., J., and Sames, D., J. (2008). Am Chem Soc, 130, 14123-14128 and Yee, D., J., Balsanek, V., Bauman, D., R., Penning, T., M., and Sames, D. (2006), Proc Natl Acad Sci USA 103, 13304-13309) (cf. Example 48).
The cell system used was HEK293 cells (ATCC, USA) (DMEM/F12, 10% FCS, 2 mM L-Glutamine, PSG). The cells were transfected with an AKR1C3 expression plasmid (pCMV6-AC-AKR1C3, GenBank Accession No. NM 003739.4), harvested after 24 hours and subsequently frozen. For assays, the frozen cells were thawed in assay medium (DMEM/F12 w/o phenolred, 0.005% Tween, 10% FCS, 2 mM L-Glutamine, PSG). Cells were seeded at 2500 cells/well into 384-well low volume or 1536-well plates (Greiner Bio-One, Frickenhausen, Germany) that contained 40-50 nl of a 100 fold concentrated compound solution in DMSO. After incubation at room temperature for 15 minutes, coumberon in PBS was added to a final concentration of 6×10^−6M. Following a 3 h incubation at room temperature, the reaction was stopped by lysing the cells with 0.4% Triton X-100. Coumberol fluorescence intensity was measured at 520 nm (excitation 380 nm) with a suitable measuring instrument (Pherastar, BMG). […] The data were normalized (transfected cells+coumberon=0% inhibition; no cells+coumberone=100% inhibition). Substances were usually tested at 11 different concentrations on the same microtiter plate in a range between 96.8 pM to 20 μM (20 μM, 5.9 μM, 1.7 μM, 0.5 μM, 0.15 μM, 44 nM, 12.9 nM, 3.8 nM, 1.1 nM, 0.3 nM and 96.8 pM). The dilutions were carried out on a 100 fold concentrated solution by serial dilution in duplicates. From the obtained data IC50 values were calculated by a 4-parameter fit.

Consider `C[C@]12CC[C@@H]3c4ccc(S(C)(=N)=O)cc4CC[C@H]3[C@@H]1CC=C2c1cncc(F)c1` (some centres unmarked) [Example 46, 17-(5-fluoropyridin-3-yl)-3-(S-methylsulfonimidoyl)estra-1(10),2,4,16-tetraene], for which the IC50 stood at 2.2 nM against AKR1C3 [1] and 30 nM at AKR1C3 [2].
In the case of `C[C@]12CC[C@@H]3c4ccc(S(C)(=O)=O)cc4CC[C@H]3[C@@H]1CC=C2c1cncc(F)c1` [Example 08, 17-(5-fluoropyridin-3-yl)-3-(methylsulfonyl)estra-1(10),2,4,16-tetraene], the figures for the IC50 against AKR1C3 [1] and on AKR1C3 [2] were 4.1 nM and 80 nM, respectively.
Turning to `C[C@]12CC[C@@H]3c4ccc(S(=O)(=O)CCCC(=O)O)cc4CC[C@H]3[C@@H]1CC=C2c1cncc(Cl)c1` [Example 19, 4-{[17-(5-chloropyridin-3-yl)estra-1,3,5(10),16-tetraen-3-yl]sulfonyl}butanoic acid], the IC50 against AKR1C3 [1] worked out at 1.7 nM; at AKR1C3 [2] it was 150 nM.
On the same counts, the results for `C[C@]12CC[C@@H]3c4ccc(NC(=O)CCC(=O)O)cc4CC[C@H]3[C@@H]1CC=C2c1cncnc1` [Example 25, 4-oxo-4-{[17-(pyrimidin-5-yl)estra-1(10),2,4,16-tetraen-3-yl]amino}butanoic acid] are 313 nM and 8340 nM.
For `C[C@]12CC[C@@H]3c4ccc(NS(=O)(=O)CCC(=O)O)cc4CC[C@H]3[C@@H]1CC=C2c1cncc(F)c1` [Example 39, 3-{[17-(5-fluoropyridin-3-yl)estra-1(10),2,4,16-tetraen-3-yl]sulfamoyl}propanoic acid], in that order: 3 nM and 5100 nM.
On the same counts, the results for `C[C@]12CC[C@@H]3c4ccc(NC(=O)CCCO)cc4CC[C@H]3[C@@H]1CC=C2c1cncc(F)c1` [Example 27, N-[17-(5-fluoropyridin-3-yl)estra-1(10),2,4,16-tetraen-3-yl]-4-hydroxybutanamide] are 5 nM and 110 nM.
`C[C@]12CC[C@@H]3c4ccc(S(=O)(=O)CCCCO)cc4CC[C@H]3[C@@H]1CC=C2c1cncc(F)c1` [Example 21, 4-{[17-(5-fluoropyridin-3-yl)estra-1(10),2,4,16-tetraen-3-yl]sulfonyl}butan-1-ol]: the IC50 at AKR1C3 [1] worked out at 5.3 nM; at AKR1C3 [2], 40 nM.
In the case of `C[C@]12CC[C@@H]3c4ccc(S(=O)(=O)CCCC(N)=O)cc4CC[C@H]3[C@@H]1CC=C2c1cncc(F)c1` [Example 20, 4-{[17-(5-fluoropyridin-3-yl)estra-1(10),2,4,16-tetraen-3-yl]sulfonyl}butanamide], the IC50 against AKR1C3 [1] was determined as 3.2 nM; at AKR1C3 [2] it was 30 nM.
For `COc1cncc(C2=CC[C@H]3[C@@H]4CCc5cc(S(=O)(=O)CCCC(=O)O)ccc5[C@H]4CC[C@]23C)c1` [Example 16, 4-{[17-(5-methoxypyridin-3-yl)estra-1,3,5(10),16-tetraen-3-yl]sulfonyl}butanoic acid], in that order: 9.7 nM and 540 nM.
For `CC(=O)NS(=O)(=O)CCC(=O)N(C)c1ccc2c(c1)CC[C@@H]1[C@@H]2CC[C@]2(C)C(c3cncc(F)c3)=CC[C@@H]12` [Example 31, 3-(acetylsulfamoyl)-N-[17-(5-fluoropyridin-3-yl)estra-1(10),2,4,16-tetraen-3-yl]-N-methylpropanamide], in that order: 4.1 nM and 1540 nM.
On the same counts, the results for `CN(C(=O)CCc1nn[nH]n1)c1ccc2c(c1)CC[C@@H]1[C@@H]2CC[C@]2(C)C(c3cncc(F)c3)=CC[C@@H]12` [Example 33, N-[17-(5-fluoropyridin-3-yl)estra-1(10),2,4,16-tetraen-3-yl]-N-methyl-3-(2H-tetrazol-5-yl)propanamide] are 2.5 nM and 260 nM.
For `CN(CCC(=O)O)S(=O)(=O)c1ccc2c(c1)CC[C@@H]1[C@@H]2CC[C@]2(C)C(c3cncc(F)c3)=CC[C@@H]12` [Example 02, N-{[17-(5-fluoropyridin-3-yl)estra-1(10),2,4,16-tetraen-3-yl]sulfonyl}-N-methyl-beta-alanine], the IC50 was determined as 3.5 nM at AKR1C3 [1] and 380 nM at AKR1C3 [2].
On the same counts, the results for `C[C@]12CC[C@@H]3c4ccc(NC(=O)CCc5nn[nH]n5)cc4CC[C@H]3[C@@H]1CC=C2c1cncc(F)c1` [Example 32, N-[17-(5-fluoropyridin-3-yl)estra-1(10),2,4,16-tetraen-3-yl]-3-(2H-tetrazol-5-yl)propanamide] are 11.8 nM and 2170 nM.
Take `C[C@]12CC[C@@H]3c4ccc(S(=O)(=O)CCCC(=O)O)cc4CC[C@H]3[C@@H]1CC=C2c1cncc(C(F)(F)F)c1` [Example 14, 4-({17-[5-(trifluoromethyl)pyridin-3-yl]estra-1(10),2,4,16-tetraen-3-yl}sulfonyl)butanoic acid]: the values for the IC50 on AKR1C3 [1] and on AKR1C3 [2] were 14.3 nM and 490 nM, respectively.
Take `C[C@]12CC[C@@H]3c4ccc(NC(=O)CCC(=O)O)cc4CC[C@H]3[C@@H]1CC=C2c1cncc(F)c1` [Example 23, 4-{[17-(5-fluoropyridin-3-yl)estra-1(10),2,4,16-tetraen-3-yl]amino}-4-oxobutanoic acid]: the IC50 was determined as 3.8 nM on AKR1C3 [1] and 780 nM on AKR1C3 [2].
On the same counts, the results for `Cc1cc(C2=CC[C@H]3[C@@H]4CCc5cc(S(=O)(=O)N(C)CCC(=O)O)ccc5[C@H]4CC[C@]23C)cnn1` [Example 07, N-methyl-N-{[17-(6-methylpyridazin-4-yl)estra-1(10),2,4,16-tetraen-3-yl]sulfonyl}-beta-alanine] are 0.5 nM and 800 nM.
